What was measured:
[1] = molecular target: T1, human dopamine D3 receptor (Homo sapiens, UniProt P35462); test: human D3 receptor binding ([125I]-iodosulpride, CHO membranes)
T1 construct: expressed in transfected cells; membranes
Method: (§1) .check mark. In vitro: human D2 and D3 receptor binding study
(§2) CHO (Chinese Hamster Ovary) cells were transfected in a stable manner by the gene that codes for the human dopamine D2 or D3 receptor according to methods known from the literature. The native cells are deficient in the enzyme DHFR (DiHydroFolate Reductase). The cells are cultured in an incubator at 37° C. in a humid atmosphere of 5% CO2 /95% air. The transfections are carried out using Lipofectin (Gibco). The CHO cells, co-transfected with the human D2 receptor and the gene for resistance to phleomycin, were selected for their resistance to the presence of that antibiotic in the culture medium. The cells transfected with the human D3 receptor were selected in a medium containing no hypoxanthine/thymidine in the presence of methotrexate. […]
(§3) The ranges of concentration of each compound include at least seven points determined in triplicate, each experiment being repeated at least twice.
(§4) The incubation, which lasts for thirty minutes at 30° C., is terminated by means of rapid filtration over a Brandle apparatus, followed by three consecutive rinses with Tris-HCl buffer, pH 7.4, containing 120 mM NaCl. The filters recovered are then counted using a gamma counter. […]

[2] = molecular target: T2, human dopamine D2 receptor (Homo sapiens, UniProt P14416); test: human D2 receptor binding ([125I]-iodosulpride, CHO membranes); conditions: dissociation constant of radioligand
T2 construct: expressed in transfected cells; membranes
Method: as §1, §2, §3, §4

T1 sequence (P35462 whole entry): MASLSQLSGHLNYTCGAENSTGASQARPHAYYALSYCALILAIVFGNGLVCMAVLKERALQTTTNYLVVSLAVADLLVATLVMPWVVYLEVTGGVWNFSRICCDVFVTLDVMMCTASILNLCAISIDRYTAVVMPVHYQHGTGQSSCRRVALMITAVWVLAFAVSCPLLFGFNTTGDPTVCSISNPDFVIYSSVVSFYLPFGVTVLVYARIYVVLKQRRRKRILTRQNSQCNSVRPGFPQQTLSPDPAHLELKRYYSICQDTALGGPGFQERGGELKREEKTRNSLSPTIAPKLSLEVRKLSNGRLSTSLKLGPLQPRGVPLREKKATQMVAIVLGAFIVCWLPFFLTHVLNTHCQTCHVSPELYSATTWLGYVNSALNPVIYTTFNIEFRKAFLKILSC
T2 sequence (P14416 whole entry): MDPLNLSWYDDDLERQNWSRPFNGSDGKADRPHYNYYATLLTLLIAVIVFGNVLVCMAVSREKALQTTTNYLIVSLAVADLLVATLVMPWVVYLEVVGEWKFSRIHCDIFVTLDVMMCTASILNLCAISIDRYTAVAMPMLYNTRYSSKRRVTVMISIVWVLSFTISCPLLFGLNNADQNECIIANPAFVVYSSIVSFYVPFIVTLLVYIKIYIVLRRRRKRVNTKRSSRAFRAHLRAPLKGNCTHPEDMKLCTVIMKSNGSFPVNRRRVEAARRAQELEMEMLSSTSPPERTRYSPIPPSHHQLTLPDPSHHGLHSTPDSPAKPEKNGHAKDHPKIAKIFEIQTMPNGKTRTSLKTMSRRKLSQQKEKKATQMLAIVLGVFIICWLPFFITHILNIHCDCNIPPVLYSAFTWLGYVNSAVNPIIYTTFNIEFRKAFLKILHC

| Compound | Ki ([1]; [125I]-iodosulpride 0.2 nM, CHO membranes, pKi = -logKi) | Kd ([1]; dissociation constant of radioligand) | Kd [2] |
| --- | --- | --- | --- |
| CCCN(CCC)C1CCc2c(ccc3c2C(=O)CC3)C1 (racemic) [Example 2, (7R,S)-7-(N,N-Dipropylamino)-6,7,8,9-tetrahydro-cyclopenta[a]-naphthalen-1-one] | 10 nM | – | – |
| [^125 I]-iodosulpride | – | 1.31 nM | 0.5 nM |

Source: patent US5945566A, “Amino compounds of 6,7,8,9-tetrahydro-cyclopenta[a]naphthalene and of 2,3-dihydro-cyclopenta[e]indene” (Adir et Compagnie, priority 1997, dated 1999)
